Test results published in ChEMBL document CHEMBL5042474, “Structure-Guided Discovery of Potent and Selective DYRK1A Inhibitors” (J Med Chem, 2021).

Columns and labels:
[1] = target: T1, Dual specificity tyrosine-phosphorylation-regulated kinase 1A (Homo sapiens, UniProt Q13627); experiment: Inhibition of DYRK1A (unknown origin) using Ulight-MBP as substrate and ATP as co-substrate incubated for 40 mins and measured after 1 hr by TR-FRET assay
[2] = target: T1, Dual specificity tyrosine-phosphorylation-regulated kinase 1A; experiment: Inhibition of wild type full length DYRK1A (unknown origin) in human U2OS cells assessed as reduction in pSER520 autophosphorylation incubated for 5 hrs by western blot analysis; type: cell-based
[3] = target: Cyclin-dependent kinase 9 (Homo sapiens, UniProt P50750); experiment: Inhibition of CDK9 (unknown origin) using Ulight-MBP as substrate and ATP as co-substrate incubated for 40 mins and measured after 1 hr by TR-FRET assay
Chain of Cyclin-dependent kinase 9 (P50750 whole entry): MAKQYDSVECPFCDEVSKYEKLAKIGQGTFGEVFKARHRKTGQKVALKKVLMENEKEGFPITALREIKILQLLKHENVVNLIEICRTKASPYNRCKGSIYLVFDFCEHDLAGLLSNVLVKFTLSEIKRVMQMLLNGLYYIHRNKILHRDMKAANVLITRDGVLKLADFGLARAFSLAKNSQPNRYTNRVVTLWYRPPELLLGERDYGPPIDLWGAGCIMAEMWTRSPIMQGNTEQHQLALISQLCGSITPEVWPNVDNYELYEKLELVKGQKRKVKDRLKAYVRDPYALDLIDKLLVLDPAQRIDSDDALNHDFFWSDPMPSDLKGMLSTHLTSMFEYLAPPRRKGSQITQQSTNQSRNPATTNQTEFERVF

[4] = target: T2, Dual specificity tyrosine-phosphorylation-regulated kinase 2 (Homo sapiens, UniProt Q92630); experiment: Inhibition of DYRK2 (unknown origin) using Ulight-MBP as substrate and ATP as co-substrate incubated for 40 mins and measured after 1 hr by TR-FRET assay
T2 sequence (Q92630 whole entry): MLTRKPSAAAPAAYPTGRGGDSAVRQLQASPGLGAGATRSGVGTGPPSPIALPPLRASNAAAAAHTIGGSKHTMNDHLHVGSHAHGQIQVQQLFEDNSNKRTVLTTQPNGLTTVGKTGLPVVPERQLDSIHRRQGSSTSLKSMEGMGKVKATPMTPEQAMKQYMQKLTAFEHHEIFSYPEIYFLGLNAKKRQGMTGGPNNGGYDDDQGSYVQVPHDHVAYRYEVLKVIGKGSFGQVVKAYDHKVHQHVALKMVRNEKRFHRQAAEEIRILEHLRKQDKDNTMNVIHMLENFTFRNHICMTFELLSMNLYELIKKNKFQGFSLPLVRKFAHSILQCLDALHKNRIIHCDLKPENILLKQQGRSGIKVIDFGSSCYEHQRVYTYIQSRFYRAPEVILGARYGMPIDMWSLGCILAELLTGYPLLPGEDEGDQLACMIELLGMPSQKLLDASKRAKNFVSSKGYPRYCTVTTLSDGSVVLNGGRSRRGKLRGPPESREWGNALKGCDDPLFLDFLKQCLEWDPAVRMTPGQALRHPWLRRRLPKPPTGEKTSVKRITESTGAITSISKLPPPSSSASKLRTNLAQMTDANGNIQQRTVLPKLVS

RS4-11 [5] = experiment: Antitumor activity against human RS4-11 cells xenografted in BALB/c nu/nu mouse reduction in DYRK1A autophosphorylation of S520 residue at 6.25 mg/kg, po measured after 6 hrs by western blotting analysis relative to control; type: functional; set-up: scale not given: the % may be the effect or the level left
RS4-11 [6] = experiment: Antitumor activity against human RS4-11 cells xenografted in BALB/c nu/nu mouse assessed as reduction in DYRK1A autophosphorylation of S520 residue at 6.25 mg/kg, po measured after 2 hrs by western blotting analysis relative to control; type: functional; set-up: scale not given: the % may be the effect or the level left

Structure (SMILES)	IC50 [1] [nM]	IC50 [4] [nM]	further results
Nc1cc(-c2ccc3oc(Cl)cc3c2)cc(N)n1	76		IC50 ([2]; u2os): Not Active; IC50 [3]: 5430 nM
Cc1nc2ccc(-c3cc(N)nc(N)c3)nc2n1Cc1ccc(F)cc1		134	IC50 ([2]; read-out: IC50): 3000 nM
COc1ccc(-c2ccnc(N)c2)cc1	126		
Cc1nc2ccc(-c3cc(N)nc(N)c3)nc2n1CC(F)(F)F		6	Activity (RS4-11 [5]): 95%; Activity (RS4-11 [6]): 93%
CNCC(=O)Nc1cc(-c2ccc3occc3c2)cc(N)n1	168		
c1cc(-c2ccc3occc3c2)cc(N2CCNCC2)n1	3560		
Cc1nc2ccc(-c3cc(N)nc(N)c3)nc2n1CCOc1ccccc1		9	Activity (RS4-11 [5]): 25%; Activity (RS4-11 [6]): 59%
Cc1nc2ccc(-c3cc(N)nc(N)c3)nc2n1C(C)(C)C		6	
Cc1nc2ccc(-c3cc(N)nc(N)c3)nc2n1CCOc1ccccn1		34	
Cc1nc2ccc(-c3cc(N)nc(N)c3)nc2n1CC(F)F		4	
Cc1nc2ccc(-c3cc(N)nc(N)c3)nc2n1CCOc1cccc(Br)n1		52	IC50 [3]: 289 nM
Nc1cc(-c2ccc3occc3c2)cc(NCCc2ccsc2)n1	189		
Cc1cc(-c2ccc(Cl)cc2)ccn1	> 10000		
Cc1nc2ccc(-c3cc(N)nc(N)c3)nc2n1CCCC(F)(F)F		10	
Cc1nc2ccc(-c3cc(N)nc(N)c3)nc2n1CCc1ccco1		6	
Cc1nc2ccc(-c3cc(N)nc(N)c3)nc2n1CCOc1cccc(Cl)n1		33	IC50 [3]: 222 nM
COc1ccc(-c2cc(N)nc(N)n2)cc1	158		
COCCCn1c(C)nc2ccc(-c3cc(N)nc(N)c3)nc21		5	
COc1ccc(-c2ccnc(C)c2)cc1	670		
COCCCNc1cc(-c2ccc3occc3c2)cc(N)n1	96		
Cc1cc(-c2ccc3occc3c2)cc(N)n1	77		
COc1cc(-c2ccnc(N)c2)ccc1Cl	218		
Cc1nc2ccc(-c3cc(N)nc(N)c3)nc2n1CCC1CCCCC1		9	
Cc1nc2ccc(-c3cc(N)nc(N)c3)nc2n1C1CCCC1		1	
Cc1nc2ccc(-c3cc(N)nc(N)c3)nc2n1C[C@@H](C)Oc1ccccc1		46	IC50 ([2]; read-out: IC50): 111 nM; IC50 [3]: > 3000 nM
Nc1cc(-c2ccc3sccc3c2)cc(N)n1	137		
c1cc(-c2ccc3occc3c2)ccn1	320		
Cc1nc2ccc(-c3cc(N)nc(N)c3)nc2n1C[C@H](C)Oc1ccccn1		117	IC50 ([2]; read-out: IC50): > 300 nM; IC50 [3]: > 3000 nM

Further molecules by falling IC50 [1], results first:

IC50 [1] [nM]	IC50 [4] [nM]	Structure (SMILES)	further results
42		Nc1cc(-c2ccc3occc(=O)c3c2)cc(N)n1	
36		Nc1cc(-c2ccc3occc3c2)nc(N)n1	
34		Cc1cc2cc(-c3cc(N)nc(N)c3)ccc2o1	IC50 ([2]; read-out: IC50): 1800 nM; IC50 [3]: > 10000 nM
22		Nc1cc(-c2ccc3c(c2)CCO3)nc(N)n1	
22		Nc1cc(-c2ccc3ocnc3c2)cc(N)n1	
19		Cc1onc2ccc(-c3cc(N)nc(N)c3)cc12	
19		Nc1cc(-c2ccc3occc3c2)ccn1	
17		Nc1cc(-c2ccc3nccn3c2)cc(N)n1	
17		CNc1cc(-c2ccc3occc3c2)cc(N)n1	
16		Nc1cc(-c2ccc3c(c2)CCO3)cc(N)n1	
15		Nc1cc(-c2ccc3ncnn3c2)cc(N)n1	
14		Cn1cnc2cc(-c3cc(N)nc(N)c3)ccc21	
14		Nc1cc(-c2ccc3occc3c2)cc(N)n1	IC50 ([2]; read-out: IC50): 500 nM; IC50 [3]: 41 nM
13		Cn1cnc2ccc(-c3cc(N)nc(N)c3)nc21	
11		Nc1cc(-c2ccc3c(c2)OCCO3)cc(N)n1	
10		Nc1cc(-c2ccc3ncoc3c2)cc(N)n1	
10		Nc1cc(-c2ccc3ncccc3c2)cc(N)n1	
10		Nc1cc(-c2ccc3occc3n2)cc(N)n1	
8	22	Cc1nc2ccc(-c3cc(N)nc(N)c3)nc2n1C[C@H](C)Oc1ccccc1	IC50 ([2]; read-out: IC50): 73 nM; IC50 [3]: > 3000 nM
7	116	Cc1nc2ccc(-c3cc(N)nc(N)c3)nc2n1C[C@@H](C)Oc1ccccn1	IC50 [3]: > 3000 nM
5	195	Cc1nc2ccc(-c3cc(N)nc(N)c3)nc2n1C[C@@H](C)Oc1cccc(Br)n1	IC50 ([2]; read-out: IC50): 44 nM; IC50 [3]: 467 nM
2		Nc1cc(-c2ccn3nccc3n2)cc(N)n1	
1		Nc1cc(-c2ccc3ncsc3c2)cc(N)n1	
1	21	Cc1oc2ccc(-c3cc(N)nc(N)c3)cc2c1C	IC50 ([2]; read-out: IC50): 1650 nM; IC50 [3]: 8840 nM
